pIC50: −log10 of the molar value.
target: Methionine aminopeptidase 1 (Homo sapiens, UniProt P53582); experiment: Inhibitory activity against human methionine aminopeptidase-1

pIC50	Structure (SMILES)
5.30	CCCSC[C@@H](N)[C@H](O)C(=O)NNc1ccc(C)cc1
< 4.00	CCOC(=O)[C@@H](C)NC(=O)[C@@H](O)[C@H](N)CC1CCCCC1
5.89	CCSCC[C@@H](N)[C@H](O)C(=O)NOc1ccccc1
4.49	CC(C)SCC[C@@H](N)[C@H](O)C(=O)N[C@@H](CO)c1ccccc1
5.17	Cc1ccc(NNC(=O)[C@@H](O)[C@H](N)CSCC(C)C)cc1
4.28	CC(C)CSC[C@@H](N)[C@H](O)C(=O)NCCc1ccc(Cl)cc1Cl
4.85	CCOC(=O)[C@H](C)NC(=O)C(O)[C@H](N)CSC(C)(C)C (stereo partly specified)
4.89	CCOC(=O)[C@H](C)NC(=O)C(O)[C@H](N)CSC(C)C (stereo partly specified)
5.89	CCSCC[C@@H](N)[C@H](O)C(=O)NNc1ccc(C)cc1
4.92	CCCSC[C@@H](N)[C@H](O)C(=O)N[C@@H](CO)c1ccccc1
4.00	CCCC[C@@H](N)C(O)C(=O)N[C@@H](C)C(=O)OCC (stereo partly specified)
4.20	CCOC(=O)[C@H](C)NC(=O)C(O)[C@H](N)CCSC (stereo partly specified)
< 4.00	CCOC(=O)[C@H](C)NC(=O)C(O)[C@H](N)CSCC1CCCCC1 (stereo partly specified)
4.00	CCOC(=O)[C@H](C)NC(=O)C(O)[C@H](N)CCc1ccccc1 (stereo partly specified)
4.35	C[C@H](NC(=O)[C@@H](O)[C@H](N)CSCC1CCCCC1)c1cccc2ccccc12
5.06	CCSCC[C@@H](N)[C@H](O)C(=O)NNC(=O)c1cccc(Cl)c1
4.96	CCCSC[C@@H](N)[C@H](O)C(=O)NNC(=O)c1cccc(Cl)c1
< 4.00	CCOC(=O)C(C)(C)NC(=O)[C@@H](O)[C@H](N)CC1CCCCC1

pIC50	Structure (SMILES)
4.18	CCOC(=O)[C@H](C)NC(=O)C(O)[C@H](N)CSCC(C)C (stereo partly specified)
4.62	CCCSC[C@@H](N)[C@H](O)C(=O)NCCc1ccc(Cl)cc1Cl
5.77	CCCSC[C@@H](N)[C@H](O)C(=O)NOc1ccccc1
4.74	CC(C)SCC[C@@H](N)[C@H](O)C(=O)NNC(=O)c1ccc2ccccc2c1
4.16	CCOC(=O)[C@H](C)NC(=O)C(O)[C@H](N)CCSCC (stereo partly specified)
4.72	CC(C)CSC[C@@H](N)[C@H](O)C(=O)N(C)Cc1cccc2ccccc12
5.82	CC(C)CSC[C@@H](N)[C@H](O)C(=O)NOc1ccccc1
< 4.00	C[C@H](NC(=O)[C@@H](O)[C@H](N)CC1CCCCC1)C(=O)O
4.24	CCCSC[C@@H](N)C(O)C(=O)N[C@@H](C)C(=O)OCC (stereo partly specified)
4.96	Cc1ccc(NNC(=O)[C@@H](O)[C@H](N)CCSC(C)C)cc1
4.25	CC(C)SCC[C@@H](N)[C@H](O)C(=O)NNC(=O)c1cccc(Cl)c1
4.96	CC(C)CSC[C@@H](N)[C@H](O)C(=O)N[C@@H](CO)c1ccccc1
4.47	CC(C)CSC[C@@H](N)[C@H](O)C(=O)NNc1cccc2ccccc12
4.08	CCOC(=O)[C@H](C)NC(=O)[C@@H](O)[C@H](N)CC1CCCCC1
4.08	CCOC(=O)[C@H](C)NC(=O)C(O)[C@H](N)CC1CCCCC1 (stereo partly specified)
3.86	CCOC(=O)[C@H](C)NC(=O)C(O)[C@H](N)CCC1CCCCC1 (stereo partly specified)
5.33	CC(C)SCC[C@@H](N)C(O)C(=O)NOc1ccccc1 (single isomer, unassigned)
4.16	CC(C)SCC[C@@H](N)C(O)C(=O)NCCc1ccc(Cl)cc1Cl (single isomer, unassigned)

Continued, compound first:

Structure (SMILES)	pIC50
N[C@H](CC1CCCCC1)[C@H](O)C(=O)NOc1ccccc1	4.70
CN(Cc1cccc2ccccc12)C(=O)[C@@H](O)[C@H](N)CCc1ccccc1	< 4.00
N[C@H](CCc1ccccc1)[C@H](O)C(=O)N[C@@H](CO)c1ccccc1	4.12
CCSCC[C@@H](N)[C@H](O)C(=O)N(C)Cc1cccc2ccccc12	4.92
N[C@H](CC1CCCCC1)[C@H](O)C(=O)NNC(=O)c1cc(Cl)ccc1Cl	< 4.00
N[C@H](CC1CCCCC1)[C@H](O)C(=O)N[C@@H](CO)c1ccccc1	4.17
CC(NC(=O)[C@@H](O)[C@H](N)CC1CCCCC1)c1ccc2ccccc2c1 (stereo partly specified)	5.28
N[C@H](CC1CCCCC1)[C@H](O)C(=O)NNc1cccc2ccccc12	4.24
CCSCC[C@@H](N)[C@H](O)C(=O)NNC(=O)c1ccc2ccccc2c1	4.82
N[C@H](CC1CCCCC1)[C@H](O)C(=O)NCCc1ccc(Cl)cc1Cl	4.20
CN(Cc1cccc2ccccc12)C(=O)[C@@H](O)[C@H](N)CC1CCCCC1	4.11
Cc1ccc(NNC(=O)[C@@H](O)[C@H](N)CCc2ccccc2)cc1	4.80
N[C@H](C1CCCCC1)[C@H](O)C(=O)NNC(=O)c1cccc(Cl)c1	4.34
N[C@H](C1CCCCC1)C(O)C(=O)NOc1ccccc1 (stereo partly specified)	4.02
N[C@H](CC1CCCCC1)[C@H](O)C(=O)NCc1ccc2ccccc2c1	4.92
N[C@H](C1CCCCC1)[C@H](O)C(=O)N[C@@H](CO)c1ccccc1	4.10
N[C@H](C1CCCCC1)[C@H](O)C(=O)NNc1cccc2ccccc12	4.05
CC(C)SCC[C@@H](N)[C@H](O)C(=O)N(C)Cc1cccc2ccccc12	4.09
N[C@H](CC1CCCCC1)[C@H](O)C(=O)NNC(=O)c1ccc2ccccc2c1	4.20
N[C@H](CCc1ccccc1)[C@H](O)C(=O)NNc1cccc2ccccc12	4.03
Cc1ccc(NNC(=O)[C@@H](O)[C@H](N)CC2CCCCC2)cc1	4.85
N[C@H](CSCC1CCCCC1)[C@H](O)C(=O)NCCc1ccc(Cl)cc1Cl	< 4.00
CCSCC[C@@H](N)[C@H](O)C(=O)NNc1cccc2ccccc12	5.05
N[C@H](CC1CCCCC1)[C@H](O)C(=O)NNC(=O)c1cccc(Cl)c1	< 4.00
COc1cccc(NC(=O)[C@@H](O)[C@H](N)CC2CCCCC2)c1	4.05
C[C@H](NC(=O)C(O)[C@H](N)CCc1ccccc1)c1cccc2ccccc12 (single isomer, unassigned)	4.92
N[C@H](C1CCCCCCC1)C(O)C(=O)NOc1ccccc1 (single isomer, unassigned)	< 4.00
N[C@H](CCc1ccccc1)C(O)C(=O)NOc1ccccc1 (single isomer, unassigned)	4.89

species: Homo sapiens; experiment: Inhibitory activity against proliferation of human microvascular endothelial cell

Structure (SMILES)	pIC50
CC(C)SCC[C@@H](N)[C@H](O)C(=O)NNC(=O)c1cccc(Cl)c1	7.00

target: Methionine aminopeptidase 2 (Homo sapiens, UniProt P50579); experiment: Inhibitory activity against human methionine aminopeptidase-2
Sequence (P50579 whole entry): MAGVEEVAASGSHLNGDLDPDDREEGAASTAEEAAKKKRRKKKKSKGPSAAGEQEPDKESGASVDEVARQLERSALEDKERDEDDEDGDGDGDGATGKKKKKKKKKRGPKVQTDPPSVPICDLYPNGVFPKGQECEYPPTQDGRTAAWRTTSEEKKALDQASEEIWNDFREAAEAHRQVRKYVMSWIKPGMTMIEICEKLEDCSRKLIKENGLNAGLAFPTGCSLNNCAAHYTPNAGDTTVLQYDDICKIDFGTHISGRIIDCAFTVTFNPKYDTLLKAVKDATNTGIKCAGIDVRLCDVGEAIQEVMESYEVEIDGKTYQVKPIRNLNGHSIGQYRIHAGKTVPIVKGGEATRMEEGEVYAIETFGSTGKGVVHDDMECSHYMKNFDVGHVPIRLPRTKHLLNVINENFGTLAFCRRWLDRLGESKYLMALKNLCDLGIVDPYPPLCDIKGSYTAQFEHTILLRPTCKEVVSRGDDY

pIC50	Structure (SMILES)
< 4.00	CC(C)[C@H](C)NC(=O)[C@@H](O)[C@H](N)CC1CCCCC1
